Laboratory results taken from PubChem BioAssay (NCI).
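Exposure lasted 48 hours, with cells grown in 96-well plates and compounds tested at five concentrations. TGI: total growth inhibition.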

Legend:
Assay in all cases: inhibition of tumour cell growth, NCI panel, 48 h
[1] = system: SK-MEL-2 melanoma
[2] = system: HOP-92 NSCLC
[3] = system: NCI-H23 lung
[4] = system: HCC-2998 colon
[5] = system: ACHN renal
[6] = system: K-562 leukemia
[7] = system: OVCAR-3 ovarian
[8] = system: NCI-H226 lung
[9] = system: HCT-15 colon
[10] = system: MOLT-4 leukemia
[11] = system: OVCAR-4 ovarian
[12] = system: NCI-H522 lung
[13] = system: OVCAR-5 ovarian
[14] = system: A549 NSCLC
[15] = system: UO-31 renal
[16] = system: MCF7 breast
[17] = system: HCT-116 colon
[18] = system: MDA-N
[19] = system: KM12 colon
[20] = system: DU-145 prostate
[21] = system: HL-60(TB) leukemia
[22] = system: HOP-62 NSCLC
[23] = system: SR leukemia
[24] = system: LOX IMVI melanoma
[25] = system: EKVX NSCLC
[26] = system: BT-549 breast
[27] = system: A498 renal
[28] = system: OVCAR-8 ovarian
[29] = system: COLO 205 colon
[30] = system: UACC-62 melanoma
[31] = system: RXF 393 renal
[32] = system: 786-0 renal
[33] = system: M14 melanoma
[34] = system: T-47D breast
[35] = system: MALME-3M melanoma
[36] = system: NCI-H460 lung
[37] = system: UACC-257 melanoma
[38] = system: HS 578T breast
[39] = system: HT29 colon
[40] = system: SK-MEL-5 melanoma
[41] = system: IGROV1 ovarian
[42] = system: PC-3 prostate
[43] = system: SW-620 colon
[44] = system: SF-268 CNS
[45] = system: MDA-MB-435
[46] = system: SK-MEL-28 melanoma
[47] = system: U251 CNS
[48] = system: SNB-75 CNS
[49] = system: TK-10 renal
[50] = system: SF-295 CNS
[51] = system: CAKI-1 renal
[52] = system: RPMI-8226 leukemia
[53] = system: SNB-19 CNS
[54] = system: CCRF-CEM leukemia
[55] = system: SF-539 CNS
[56] = system: SN12C renal
[57] = system: NCI/ADR-RES ovarian
[58] = system: SK-OV-3 ovarian
[59] = system: MDA-MB-231 breast

C=C1C(=O)OC2C1C(OC(=O)/C(C)=C/C)CC(O)(CCl)C1C(O)C=C(C)C21O (stereo unspecified)
TGI [1]: > 50.3 µM | TGI [2]: 24.4 µM | TGI [3]: 28.3 µM | TGI [4]: 25.6 µM | TGI [5]: 18.2 µM | TGI [6]: > 100 µM | TGI [7]: 27.7 µM | TGI [8]: 46.5 µM | TGI [9]: 14.4 µM | TGI [10]: 20.6 µM | TGI [11]: 30 µM | TGI [12]: 3.29 µM | TGI [13]: 32.4 µM | TGI [14]: > 63.7 µM | TGI [15]: 33.9 µM | TGI [16]: 16.7 µM | TGI [17]: 18.9 µM | TGI [18]: 37.3 µM | TGI [19]: 49.8 µM | TGI [20]: 30.7 µM | TGI [21]: 18 µM | TGI [22]: > 67.2 µM | TGI [23]: 29.2 µM | TGI [24]: 17.8 µM | TGI [25]: 29.9 µM | TGI [26]: 23.4 µM | TGI [27]: > 60.1 µM | TGI [28]: 37.2 µM | TGI [29]: 18.5 µM | TGI [30]: 25.5 µM | TGI [31]: 18.3 µM | TGI [32]: 18.4 µM | TGI [33]: 23.8 µM | TGI [34]: 42.2 µM | TGI [35]: 8.9 µM | TGI [36]: 36.2 µM | TGI [37]: 25.6 µM | TGI [38]: > 100 µM | TGI [39]: 31.5 µM | TGI [40]: 27.7 µM | TGI [41]: 31.6 µM | TGI [42]: > 51.3 µM | TGI [43]: 15.7 µM | TGI [44]: > 69.5 µM | TGI [45]: > 62.1 µM | TGI [46]: 35 µM | TGI [47]: 65.1 µM | TGI [48]: > 59 µM | TGI [49]: 27.6 µM | TGI [50]: > 100 µM | TGI [51]: 11.4 µM | TGI [52]: 30.6 µM | TGI [53]: > 64.2 µM | TGI [54]: > 36.8 µM | TGI [55]: 65.5 µM | TGI [56]: 29.4 µM | TGI [57]: 55.6 µM | TGI [58]: > 100 µM | TGI [59]: 30.9 µM

COc1ccc(C(=O)O[C@H]2CC[C@@]3(C)[C@@H]4CC[C@H]5[C@]6(O)C[C@H](O)[C@@]7(O)[C@@H](CN8C[C@@H](C)CC[C@H]8[C@@]7(C)O)[C@]6(O)C[C@@]53OC24O)cc1OC
TGI [1]: > 100 µM | TGI [2]: > 100 µM | TGI [3]: > 100 µM | TGI [4]: > 100 µM | TGI [5]: > 100 µM | TGI [6]: > 100 µM | TGI [7]: > 100 µM | TGI [8]: > 100 µM | TGI [9]: > 100 µM | TGI [10]: > 100 µM | TGI [11]: > 100 µM | TGI [12]: > 100 µM | TGI [13]: > 100 µM | TGI [14]: > 100 µM | TGI [15]: > 100 µM | TGI [16]: > 100 µM | TGI [17]: > 100 µM | TGI [18]: > 100 µM | TGI [19]: > 100 µM | TGI [20]: > 100 µM | TGI [22]: > 100 µM | TGI [23]: > 100 µM | TGI [24]: > 100 µM | TGI [25]: > 100 µM | TGI [26]: > 100 µM | TGI [27]: > 100 µM | TGI [28]: > 100 µM | TGI [29]: > 100 µM | TGI [30]: > 100 µM | TGI [31]: > 100 µM | TGI [32]: > 100 µM | TGI [33]: > 100 µM | TGI [34]: > 100 µM | TGI [35]: > 100 µM | TGI [36]: > 100 µM | TGI [37]: > 100 µM | TGI [38]: > 100 µM | TGI [39]: > 100 µM | TGI [40]: > 100 µM | TGI [41]: > 100 µM | TGI [42]: > 100 µM | TGI [43]: > 100 µM | TGI [44]: > 100 µM | TGI [45]: > 100 µM | TGI [46]: > 100 µM | TGI [47]: > 100 µM | TGI [48]: > 100 µM | TGI [49]: > 100 µM | TGI [50]: > 100 µM | TGI [51]: > 100 µM | TGI [52]: > 100 µM | TGI [53]: > 100 µM | TGI [55]: > 100 µM | TGI [56]: > 100 µM | TGI [57]: > 100 µM | TGI [58]: > 100 µM | TGI [59]: > 100 µM
